Columns and labels:
in vitro = assay type: cell-based
Method: (§1) First, to determine if the activity of C1 was due to toxicity, 2B4.11 T-cells (1×10^5) were cultured in microtiter wells in the presence of the peptide conjugates at 50 μM. After 20 hours, 30 μL were removed and cells assessed for viability by trypan blue staining. The remaining culture was then pulsed with 0.5 μCi [^3H] thymidine for 5 h, harvested, and quantitated for [^3H] thymidine uptake to assess cellular proliferation.

2B4.11 T-cells = test: in vitro; assay type: cell-based; settings: 50 μM, relative to 0.5% DMSO control; ±SD
Method: as §1

2B4.11 cells = test: T-cell activation with H57-597 antibody (TCRβ chain crosslinking), IL-2 production; assay type: cell-based; settings: H57-597 0.5 μg/mL with LK cells; 50 μM; relative to DMSO control; ±SD
Method: To analyse the mode of action of C1, T-cells were activated using 2C11-145 and H57-597 antibodies. The H57-597 antibody is directed against the TCRβ chain, and when administered at sub-optimal doses in conjunction with accessory cells (LK35.2), is capable of activating T cells. […] C1 was added to give a final reaction volume of 250 μL at 50 μM and 0.5% DMSO.

[1] = assay type: physicochemical
Method: pH stability was also investigated. C1 (2 μg/μl) was incubated at 30° C. for three days at pH 3, 7 and 10. Samples were taken after each day and analysed by mass spectrometry.

allergic mice (OVA/OVA) = test: Allergic airways disease (OVA) model: inflammatory cells in BALF; assay type: in vivo; parameters: key to Airway lymphocytes / Airway eosinophils / Airway macrophages / Airway inflammatory cells / Airway neutrophils: nc: no change; ↑: increase; ↓: decrease
[2] = 200 μg s.c. during challenge, allergic mice
[3] = 200 μg/100 μl s.c. during OVA challenge, compared to OVA/OVA alone

CC(C)C[C@@H]1NC(=O)[C@@H](CC(C)C)NC(=O)[C@H](CCCNC(=N)N)NC(=O)[C@@H](CC(C)C)NC(=O)CNC(=O)[C@@H](C(C)C)NC(=O)[C@H](CCCCN)NC(=O)[C@@H](CC(C)C)NC(=O)[C@H](CC(C)C)NC(=O)[C@@H](CC(C)C)NC1=O [C1, LDRLDLLDLLDKVDG]
viability at 20 h, 50 µM (in vitro): 86.6%
cellular proliferation ([3H] thymidine uptake) (2B4.11 T-cells): 62.56%±14.25
IL-2 production (2B4.11 cells): 54.02%+/−9.32
pH range over which stable [1]: 1-11 pH
eosinophils in BALF (allergic mice (OVA/OVA); [2]): decrease
total inflammatory cell counts in bronchoalveolar lavage fluid (BALF) (allergic mice (OVA/OVA); [2]): significantly decreased
Airway eosinophils (allergic mice (OVA/OVA); [3]): ↓
Airway inflammatory cells (allergic mice (OVA/OVA); [3]): ↓
Airway lymphocytes (allergic mice (OVA/OVA); [3]): nc
Airway macrophages (allergic mice (OVA/OVA); [3]): nc
Airway neutrophils (allergic mice (OVA/OVA); [3]): nc

From patent publication US20120077732A1, “CYCLIC PEPTIDES AND USES THEREOF” (SYDNEY WEST AREA HEALTH SERVICE, priority 2008, published 2012)
